Reference: ChEMBL document CHEMBL1201862, “PubChem BioAssay data set” (2004)
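Where inhibition never reached the appropriate level, the endpoint shown equals the highest concentration tested. Otherwise, values were interpolated linearly from a five-concentration, 48-hour dose response in 96-well plates. GI50: concentration for 50% inhibition of growth.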 Active and inactive are the calls of the source. Rule as the data show it: active = GI50 up to about 1.1 µM and inactive = higher.

Columns and labels:
Assay in all cases: DTP human tumour cell line panel, 48 h
HT-29 = system: HT-29
SF-268 = system: SF-268
NCI-H460 = system: NCI-H460
MDA-MB-435 = system: MDA-MB-435
MOLT-4 = system: MOLT-4
UO-31 = system: UO-31
HL-60 = system: HL-60
LOX IMVI = system: LOX IMVI
OVCAR-8 = system: OVCAR-8
OVCAR-5 = system: OVCAR-5
COLO 205 = system: COLO 205
A498 = system: A498
SK-MEL-28 = system: SK-MEL-28
UACC-257 = system: UACC-257
NCI/ADR-RES = system: NCI/ADR-RES
Malme-3M = system: Malme-3M
SW-620 = system: SW-620
OVCAR-4 = system: OVCAR-4
SK-MEL-5 = system: SK-MEL-5
NCI-H226 = system: NCI-H226
HOP-92 = system: HOP-92
DU-145 = system: DU-145
CCRF-CEM = system: CCRF-CEM
HOP-62 = system: HOP-62
IGROV-1 = system: IGROV-1
PC-3 = system: PC-3
K562 = system: K562
786-0 = system: 786-0
TK-10 = system: TK-10
SN12C = system: SN12C
SK-MEL-2 = system: SK-MEL-2
BT-549 = system: BT-549
UACC-62 = system: UACC-62
HCT-15 = system: HCT-15
M14 = system: M14
HCC 2998 = system: HCC 2998
RPMI-8226 = system: RPMI-8226
ACHN = system: ACHN
MDA-N = system: MDA-N
EKVX = system: EKVX
NCI-H23 = system: NCI-H23
HCT-116 = system: HCT-116
Hs-578T = system: Hs-578T
MDA-MB-231 = system: MDA-MB-231
KM12 = system: KM12
U-251 = system: U-251
SNB-75 = system: SNB-75
SK-OV-3 = system: SK-OV-3
CAKI-1 = system: CAKI-1
OVCAR-3 = system: OVCAR-3
SF-539 = system: SF-539
SF-295 = system: SF-295
SNB-19 = system: SNB-19

Compound: CCN(CC)c1c(-c2c(N(CC)CC)c(OC(C)=O)c3sccn3c2=O)c(=O)n2ccsc2c1OC(C)=O
- GI50 (HT-29): > 100 µM (inactive)
- GI50 (SF-268): 39.9 µM (inactive)
- GI50 (NCI-H460): > 100 µM (inactive)
- GI50 (MDA-MB-435): > 100 µM (inactive)
- GI50 (MOLT-4): > 100 µM (inactive)
- GI50 (UO-31): 93.1 µM (inactive)
- GI50 (HL-60): > 100 µM (inactive)
- GI50 (LOX IMVI): > 100 µM (inactive)
- GI50 (OVCAR-8): 33 µM (inactive)
- GI50 (OVCAR-5): > 100 µM (inactive)
- GI50 (COLO 205): > 100 µM (inactive)
- GI50 (A498): > 100 µM (inactive)
- GI50 (SK-MEL-28): > 100 µM (inactive)
- GI50 (UACC-257): > 100 µM (inactive)
- GI50 (NCI/ADR-RES): 49.5 µM (inactive)
- GI50 (Malme-3M): > 100 µM (inactive)
- GI50 (SW-620): > 100 µM (inactive)
- GI50 (OVCAR-4): > 100 µM (inactive)
- GI50 (SK-MEL-5): > 100 µM (inactive)
- GI50 (NCI-H226): 44.4 µM (inactive)
- GI50 (HOP-92): > 100 µM (inactive)
- GI50 (DU-145): > 100 µM (inactive)
- GI50 (CCRF-CEM): > 100 µM (inactive)
- GI50 (HOP-62): 21.3 µM (inactive)
- GI50 (IGROV-1): 68.1 µM (inactive)
- GI50 (PC-3): > 100 µM (inactive)
- GI50 (K562): > 100 µM (inactive)
- GI50 (786-0): 22.5 µM (inactive)
- GI50 (TK-10): 33.2 µM (inactive)
- GI50 (SN12C): > 100 µM (inactive)
- GI50 (SK-MEL-2): 93.8 µM (inactive)
- GI50 (BT-549): 32 µM (inactive)
- GI50 (UACC-62): 81.7 µM (inactive)
- GI50 (HCT-15): > 100 µM
- GI50 (M14): > 100 µM (inactive)
- GI50 (HCC 2998): > 100 µM (inactive)
- GI50 (RPMI-8226): > 100 µM (inactive)
- GI50 (ACHN): > 100 µM (inactive)
- GI50 (MDA-N): > 100 µM (inactive)
- GI50 (EKVX): > 100 µM (inactive)
- GI50 (NCI-H23): > 100 µM (inactive)
- GI50 (HCT-116): 71 µM (inactive)
- GI50 (Hs-578T): 38.8 µM (inactive)
- GI50 (MDA-MB-231): 21.1 µM (inactive)
- GI50 (KM12): > 100 µM (inactive)
- GI50 (U-251): 37.5 µM (inactive)
- GI50 (SNB-75): 19.4 µM (inactive)
- GI50 (SK-OV-3): 73.3 µM (inactive)
- GI50 (CAKI-1): > 100 µM (inactive)
- GI50 (OVCAR-3): > 100 µM (inactive)
- GI50 (SF-539): 85.5 µM (inactive)
- GI50 (SF-295): 32 µM (inactive)
- GI50 (SNB-19): 59.6 µM (inactive)
